Patent US11970455B1, “7-(4-fluorobenzylidene)-4-(4-fluorophenyl)-2-methoxy-6,7-dihydro-5H-cyclopenta[b]pyridine-3-carbonitrile as an antimicrobial compound” (KING FAISAL UNIVERSITY, priority 2023, dated 2024)

Key:
Staphylococcus aureus = test: Antimicrobial testing by agar dilution, St. Aereus; type: cell-based; settings: after 10, 20, 40 and 60 min at all dilutions 1:100, 1:200, 1:400, 1:800
Procedure: (§1) The antimicrobial properties of the 7-(4-fluorobenzylidene)-4-(4-fluorophenyl)-2-methoxy-6,7-dihydro-5H-cyclopenta[b]pyridine-3-carbonitrile was studied by the method of agar dilution. Test solutions of each compound was prepared in concentration of 1% using dimethylformamide as a solvent then they are diluted in physiological solution to obtain the final experimental dilutions 1:100, 1:200, 1:400, 1:800. The effect of these substances are compared with furacillin in a controllable study. The testing microbes used were gram positive bacteria Staphylococcus aureus, gram negative bacteria Pseudomonas aeruginosa, Escherichia coli and Candida albicans fungi were taken. The experiments used for this survey were meat-pentonlu agar (EPA) for cultivation of bacteria and Saburo environment for fungi. Each experiment used 1 mL of test solution on each plate 500 min. Add 2 drops of emulsified with microbes feel. All experimental samples were taken from the agar after 10, 20, 40, 60 minutes in the environment on the basis of Patrk planted. Bacteria were cultivated at a temperature of 37° C. for 1 day and the mushroom was kept in a thermostat for […] at a temperature of 28° C. Then the results were checked.

Escherichia coli = test: Antimicrobial testing by agar dilution, E. Coli; type: cell-based; settings: after 10, 20, 40 and 60 min at all dilutions 1:100, 1:200, 1:400, 1:800
Procedure: as §1

Pseudomonas aeruginosa = test: Antimicrobial testing by agar dilution, Ps. aeruginosa; type: cell-based; settings: after 10, 20, 40 and 60 min at all dilutions 1:100, 1:200, 1:400, 1:800
Procedure: as §1

Candida albicans = test: Antimicrobial testing by agar dilution, Candida albicans; type: cell-based; settings: after 10, 20, 40 and 60 min at all dilutions 1:100, 1:200, 1:400, 1:800
Procedure: as §1

SMILES: COc1nc2c(c(-c3ccc(F)cc3)c1C#N)CC/C2=C\c1ccc(F)cc1 [7-(4-fluorobenzylidene)-4-(4-fluorophenyl)-2-methoxy-6,7-dihydro-5H-cyclopenta[b]pyridine-3-carbonitrile]
- inhibition activity (Staphylococcus aureus): most higher inhibition activity
- inhibition activity (Escherichia coli): most higher inhibition activity
- inhibition activity (Pseudomonas aeruginosa): most higher inhibition activity
- inhibition activity (Candida albicans): most higher inhibition activity
- melting point: 136 to 138 °C
